Results as given in patent US7427503B2, “Method for transferring material in a cell system” (Eppendorf AG, priority 2000, dated 2008).

Tests used:
[1] = system: Jurkat cells; test: Electroporation of Jurkat cells with and without trehalose in iso-osmolar working medium; type: cell-based, human; conditions: 290 mOsm
Method: Electroporation of Cells with and without Trehalose in an Iso-osmolar Working Medium.
Essentially, the same experimental conditions as in Example 1 applied, except that the osmolarity of the pulse medium was adjusted to iso-osmolar conditions by adding inositol to 290 mOsm.
Again, α,α-trehalose was added in the following concentrations: 0 mM and 40 mM.

[2] = system: Jurkat cells; test: Electroporation of Jurkat cells with and without trehalose in hypo-osmolar working medium; type: cell-based, human; conditions: 100 mOsm
Method: Electroporation of Cells with and without Trehalose in a Hypo-osmolar Working Medium.
A phosphate buffer with 1.15 mM K2HPO4/KH2PO4 buffer, pH 7.2, was used as a pulse medium. KCl at a concentration of 10 mM (α=1.5−1.6 mS/cm) was added as a conducting salt. After this, trehalose at the respective concentration was added to the pulse medium. Osmolarity was adjusted to 100 mOsm by the addition of inositol, so as to obtain a hypo-osmolar solution.
Jurkat cells that are cells of a human T-lymphocytes line were used. 40 μg/ml propidium iodide, which is a membrane-impermeable DNA dye, was added as the material to be transferred.
Pulse application took place after 10 minutes of incubation prior to pulse application, in the pulse medium at room temperature (cell density: 2-3×10^6 cells/ml). Pulse duration was 20 μs.
Electroporation took place in an Eppendorf multiporator. After pulse application, the pores were left to reseal for 10 min at room temperature.
Electropermeabilisation took place at the following trehalose concentrations: 0 mM and 40 mM (α,α-trehalose).
Pulsing takes place at 4° C. or at room temperature. This can be single pulsing; however, multiple pulsing involving up to 3 pulses can at times be advantageous.

OC[C@H]1O[C@H](O[C@H]2O[C@H](CO)[C@@H](O)[C@H](O)[C@H]2O)[C@H](O)[C@@H](O)[C@@H]1O [trehalose, α,α-trehalose]
survival rate ([1]; 40 mM trehalose vs 0 mM, above all at high field strength, FIG. 3): untreated cells (0 mM, outline squares) is many times less than in the case of cells treated with 40 mM trehalose
propidium iodide uptake ([1]; 40 mM trehalose vs 0 mM, FIG. 3): varies less markedly
pulse efficiency ([1]; 40 mM trehalose, increasing field strength, FIG. 4): gradual increase in the pulse efficiency
propidium iodide uptake ([2]; 40 mM trehalose vs 0 mM, 40 μg/ml propidium iodide, FIG. 1): only slightly influenced
pulse efficiency (product of propidium iodide uptake and survival rate) ([2]; 40 mM trehalose vs control without trehalose, increasing field strength, FIG. 2): significantly above the values of a control sample
